# Test results reported in US6989263B1, “Method for identifying and using compounds that inactivate HIV-1 and other retroviruses by attacking highly conserved zinc fingers in the viral nucleocapsid protein” (The United States of America as represented by the …, priority 1994, dated 2006).
# “Also recorded” adds a separate entry of the source. Read-outs that look alike come from different tables or passages of the source.
# How the values were obtained:
# HIV-1 (MN) p7NC = molecular target: T1, HIV-1 (MN) p7NC (Human immunodeficiency virus type 1 group M subtype B, UniProt P05888); test: Intrinsic Trp-37 fluorescence quenching of p7NC; type: biochemical; conditions: for change in intrinsic fluorescence of p7NC on incubation: Trp-37 fluorescence, zinc-reconstituted p7NC
# T1 construct: The NC protein of HIV-1 (MN) p7NC was expressed in E. coli; made in house; host or cells: E. coli (vector pMAL-c)
# Description: The NC protein of HIV-1 (MN) p7NC was expressed in E. coli. The coding sequence for HIV-1(MN) p7NC was cloned and expressed using an inducible E. coli promoter in the vector pMAL-c (New England Biolabs Inc., Beverly, Mass.). The protein was expressed as a maltose-binding fusion protein and released by proteolysis with Factor Xa. HIV-1(MN) p7NC was purified by HPLC and characterized, including complete amino acid sequence analysis. p7NC was purified by high-pressure liquid chromatography (HPLC) and reconstituted with two equivalents of zinc to generate native protein as described (M. F. Summers et al., Protein Sci. 1, 563 (1992)).
# Coordination of Zn^+2 enhances the intrinsic fluorescence of the single tryptophan (Trp-37) in the second zinc finger. […] The initial phase of the reaction with Cu^+2 (T1/2<20 seconds) gave 70% quenching of the original fluorescence, followed by a much slower phase (T1/2 ca. 6 minutes), resulting in a final limiting quenching of 85%.
# The first quenching phase was a second order reaction, whereas the second phase was independent of protein concentration or oxidizing species.
# [1] = molecular target: T2, p11 Nucleocapsid Protein (p11NC) (Equine infectious anemia virus, UniProt P69732); test: Cross-linking of p11NC in intact EIAV particles (gel-mobility shift); type: biochemical; conditions: intact EIAV (50 μM), 4× the HIV assay concentrations
# T2 construct: a variety of disulfide reagents cross-link the p11NC protein in intact viral particles; endogenous in cells; host or cells: intact EIAV particles
# T2 sequence (P69732 360-435): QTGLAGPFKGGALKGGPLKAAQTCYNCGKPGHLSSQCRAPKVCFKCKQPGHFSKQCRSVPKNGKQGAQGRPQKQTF
# Description: Essentially the same strategy was employed to analyze the ability of the various disulfide reagents to cross-link the p11 Nucleocapsid Protein (p11NC) in intact Equine Infectious Anemia Virus (EIAV) particles. The advantages of working with EIAV include the fact that it is not a human pathogen, and that the p11NC protein can be visualized by simple coomassie-blue staining after performing the gel-mobility shift assay (rather than by western blotting as for HIV) described above. The reaction conditions were essentially the same for the EIAV assays as for the HIV assays described above, except that the concentration of virus and disulfide reagent was 4× the concentrations used in the HIV assay above. The second number in each cell in the X-link column in Table 2 represents the time required to cross-link one-half of the p11NC protein in the intact viral particles. […] The bottom number in each cell of the X-link column, unless otherwise indicated, represents the concentration of EIAV used in the assay. Blank cells throughout Table 2 indicate that the compound has yet to be tested for the specified property.
# p7NC = molecular target: T3, p7NC (Human immunodeficiency virus type 1 group M subtype B, UniProt P05888); test: HPLC analysis of reaction products of purified p7NC with reagent; type: biochemical, HIV-1; set-up: key to Protein (HPLC): reaction products / Protein (HPLC): reaction rate: formation of non-native, intra-protein disulfide links (designated “Disulfides”); some of the reagents form adducts with the cysteine residues as well (designated “Adducts”); slow: “Slow” reactions are those in which greater than 10% of the p7NC protein remained in its native form after the 10 minute incubation with reagent; very slow: “Very slow” reactions are those in which greater than 50% of the p7NC protein remained in its native form after the 10 minute incubation with reagent; fast: “Fast” reactions result in complete transformation of the p7NC protein to non-native conformations during the 10 minute incubation period; conditions: for Protein (HPLC): reaction products / Protein (HPLC): reaction rate: 63 μM p7NC, 6 reagent : 1 protein, 10 minutes
# T3 construct: The NC protein of HIV-1 (MN) p7NC was expressed in E. coli; made in house; host or cells: E. coli (vector pMAL-c)
# Description: Highly purified retroviral NC proteins can be produced by expression from vectors generated through recombinant DNA technology. These proteins when reconstituted with zinc (see, Summers, et al., Protein Science 1:563–567 (1992) for methods), provide the source of the NC proteins containing the zinc fingers that are the targets for attack by the compounds of this invention. When the zinc fingers in NC proteins react with identified compounds, the reaction produces a covalent change in the NC protein, and the modified protein can be separated from the unreacted protein by, for example, reversed phase HPLC.
# Samples of p7NC and apo-p7 were reacted with varying amounts of cupric chloride and resulting products separated by HPLC. The reactions were carried out using 44.3 μM protein (p7NC or apo-p7) in 0.1 M Tris-HCl, pH 7.4, for 6 minutes at room temperature with varying concentrations of CuCl2 to achieve the indicated ratios of reactants, in a final volume of 0.7 ml. Chromatography was carried out on the resulting products at pH 2 (0.05% trifluoroacetic acid) on μBondapak™ C-18 (3.9×300 mm) at 1.0 ml/minute using an acetonitrile gradient (0–17%, 20 ml; 17–20%, 60 ml; 20–60%, 10 ml). Elution positions of unreacted protein (p7NC or apo-p7) are indicated as apo-p7.
# A two-fold excess of NOBA was reacted with p7NC, and the products were separated by HPLC (FIG. 10) as described above for Cu^+2 and p7NC. Elution positions for the reactants (NOBA and unreacted p7NC) and products, reacted p7NC, NOBA, HABA and AzoxyBA are indicated and an elution profile is included in FIG. 10. NOBA and AzoxyBA were supplied by Octamer, Inc. (Mill Valley, Calif.) and used as HPLC standards.
# The disulfide reagent of choice (each available from the Aldrich Chemical Company (Milwaukee, Wis.)) was incubated for 10 minutes with purified p7NC protein (63 μM) at a ratio of 6 molecules of reagent to 1 molecule of NC protein (there are 6 cysteine thiols per NC protein). The formation of non-native protein conformations was monitored by HPLC as described above. […] Generally, the inactivation proceeds by formation of non-native, intra-protein disulfide links (designated “Disulfides”), but some of the reagents form adducts with the cysteine residues as well (designated “Adducts”). “Slow” reactions are those in which greater than 10% of the p7NC protein remained in its native form after the 10 minute incubation with reagent. “Very slow” reactions are those in which greater than 50% of the p7NC protein remained in its native form after the 10 minute incubation with reagent. “Fast” reactions result in complete transformation of the p7NC protein to non-native conformations during the 10 minute incubation period.
# [2] = molecular target: T4, HIV NC protein in intact virus (Human immunodeficiency virus type 1 group M subtype B, UniProt P05888); test: Cross-linking of NC protein in intact HIV (non-reducing gel-mobility shift, western blot); type: biochemical, HIV-1; conditions: for X-link T-½ (min), HIV NC protein (top number): intact HIV generally 12.5 μM, reagent generally 25 μM; for X-link T-½ (min), HIV NC protein: HIV-1 @ 50 μM
# T4 construct: endogenous in cells; host or cells: intact HIV virions
# Description: Purified concentrated retrovirus and antisera against the purified NC protein of the virus can be used to test the ability of a specific compound to penetrate the virus and react with the NC protein by forming disulfide complexes in the core of the virus. The compound is mixed with the whole retrovirus under reaction conditions appropriate for the compound. The virus is then removed from the reagent by centrifugation and disrupted in, e.g, standard SDS-PAGE sample buffer with (reduced) and without (non-reduced) 2-mercaptoethanol. The viral proteins are then separated by standard SDS-PAGE and the sample examined for the presence or absence of the monomeric NC protein in the non-reduced sample. Depending upon the virus used in the experiment and the conditions of electrophoresis, the NC protein can be visualized by protein staining methods, or by immuno-blot (e.g., western) methods. Compounds which react with the NC protein by attacking the zinc finger complexes and forming disulfide cross-linked products (i.e., which generate multimers in the mobility shift assay) inactivate the virus. Thus, compounds of interest (i.e., those which cause cross-linking) reduced the amount of monomeric NC protein detected.
# In order to determine whether HIV-1MN was inactivated by NOBA, the virus was incubated with varying concentrations of NOBA (3.0, 0.3, 0.03 and 0 mM) as in Table 1. The reaction products were pelleted by centrifugation, and separated by SDS-PAGE under reducing (2% 2-mercaptoethanol, panel A), or non-reducing conditions (panel B). p7NC was visualized by immunoblot analysis using monospecific rabbit antisera to the purified NC proteins as per L. E. Henderson et al., J. Virol. 66:1856 (1992).
# Disulfide reagents were further tested for their ability to disrupt NC structure in the virus, based on their ability to cause inter-NC cysteine disulfide bonds (i.e., cross-linking) in the intact virus. The formation of inter-NC cysteine disulfides creates NC multimers, which migrate through a non-reducing gel at a different rate than NC monomers, as described above. Intact HIV virus (generally 12.5 μM) was exposed to the specified reagent (generally 25 μM) for varying lengths of time and electrophoresed through a non-reducing SDS-polyacrylamide gel. HIV NC monomers and multimers were visualized by western blot analysis as described above in Example 3. The approximate time required to cross-link one-half of the NC proteins in the virus at the specified reaction conditions was then determined. […] The top number in the cells of the X-link column in Table 2 refers to the approximate time in minutes required for one-half of the HIV NC proteins to become cross-linked.
# [3] = cited from earlier work
# HIV-1 = conditions: read-out: TCID (Virus): concentration of reagent required to inactivate half of a standardized number of HIV-1 virus particles; tissue culture infectivity assay
# Description: Concomitantly, the drug treated virions are tested for activity. The virions are suspended in media (rather than solubilized) and added to target cells. The cultures are then examined to determine whether the virions are still active.
Compound,"X-link T-½ (min), EIAV p11NC (second number) [1] [min]",Protein (HPLC): reaction products (p7NC),Protein (HPLC): reaction rate (p7NC),"cross-linking of the HIV-1 NC protein in intact virus (gel-mobility shift), in words [2]","X-link T-½ (min), HIV NC protein (top number) [2]",also measured
CC(=O)[O-].CC(=O)[O-].CC(=O)[O-].[Fe+3] [ferric acetate],,,,,,change in intrinsic fluorescence of p7NC on incubation (HIV-1 (MN) p7NC): rapid biphasic decrease in fluorescence
CN(C)C(=S)SSC(=S)N(C)C [Tetramethylthiuram Disulfide],~15,Disulfides,(slow) (“Slow” reactions are those in which greater than 10% of the p7NC protein remained in its native form after the 10 minute incubation with reagent),caused a cross-linking of the HIV-1 NC protein,~30 min,"Toxicity (LD-50, mouse) ([3]; IP): 70 mg/kg; Toxicity (LD-50, mouse) ([3]; oral): 1350 mg/kg"
CC(C)N(C(=S)SSC(=S)N(C(C)C)C(C)C)C(C)C [Tetraisopropylthiuram Disulfide],~15,Disulfides,,caused a cross-linking of the HIV-1 NC protein,>15 min,
"N#Cc1ccccc1SSc1ccccc1C#N [2,2 Dithiobis(benzonitrile)]",~15,Disulfides; also recorded: Adducts,,,<<15 min,
CCCCN(CCCC)C(=S)SSC(=S)N(CCCC)CCCC [Tetrabutylthiuram Disulfide],>60,Disulfides; also recorded: Adducts,(slow) (“Slow” reactions are those in which greater than 10% of the p7NC protein remained in its native form after the 10 minute incubation with reagent),caused a cross-linking of the HIV-1 NC protein,~30 min,"Toxicity (LD-50, mouse) ([3]; IP): 2350 mg/kg"
c1ccc(SSc2ccccn2)nc1 [Aldrithiol-2],~15,Disulfides; also recorded: Adducts,(slow) (“Slow” reactions are those in which greater than 10% of the p7NC protein remained in its native form after the 10 minute incubation with reagent),caused a cross-linking of the HIV-1 NC protein,~15 min,IC50 (HIV-1): 9 µM
"[O-][n+]1ccccc1SSc1cccc[n+]1[O-] [2,2-Dithiobis(Pyridine N-Oxide)]",<15,Disulfides,,caused a cross-linking of the HIV-1 NC protein,<<15 min,
"[Cl][Cu][Cl] [Cu^+2, cupric chloride]",,,,,,"total protein recovered in peak B (p7NC; 2, 4 or 8 Cu^+2 per p7NC, 44.3 μM protein, 6 minutes, pH 7.4): approximately one half; change in intrinsic fluorescence of p7NC on incubation (HIV-1 (MN) p7NC): rapid biphasic decrease in fluorescence; final limiting quenching (HIV-1 (MN) p7NC; Zn^+2-coordinated p7NC): 85%; quenching of the original fluorescence, initial phase (HIV-1 (MN) p7NC; Zn^+2-coordinated p7NC): 70%"
"O=C(O)c1ccc(SSc2ccc(C(=O)O)cn2)nc1 [6,6-Dithiodinicotinic Acid]",,Disulfides; also recorded: Adducts,(slow) (“Slow” reactions are those in which greater than 10% of the p7NC protein remained in its native form after the 10 minute incubation with reagent),,,"X-link T-½ (min), HIV NC protein [2]: ~60 min"
"CC(C)n1cc(C(C)(C)C)nc1SSc1nc(C(C)(C)C)cn1C(C)C [2,2-Dithiobis(4-Tert-Butyl-1-Isopropyl)-Imidazole]",,Disulfides,,,,"X-link T-½ (min), HIV NC protein [2]: >>60 min"
"c1ccc2sc(SSc3nc4ccccc4s3)nc2c1 [2,2 Dithiobis(benzothiazole)]",,Disulfides,,caused a cross-linking of the HIV-1 NC protein,,"X-link T-½ (min), HIV NC protein [2]: ~60 min; Toxicity (LD-50, mouse) ([3]; route not given): 7000 mg/kg"
Cl.Cl.N=C(N)SSC(=N)N [Formamidine Disulfide.2HCl],,Disulfides,,,,IC50 (HIV-1): 43.5 µM
